The NIST ThermoML archive (doi:10.1021/je500513b)
Numbers after ± are expanded uncertainties.

Assay: mn = molality of the nth substance listed, in mol/kg
Details: for surface tension liquid-gas: Pendant drop shape; for electrical conductivity: 100 kPa, Liquid, Mettler Toledo inLab 710

CCCCCCCCCCCCCC[N+](C)(C)CCCCCC[N+](C)(C)CCCCCCCCCCCCCC.[Br-].[Br-] + O
Details	electrical conductivity, 298.15 K [S/m]	electrical conductivity, 303.15 K [S/m]	electrical conductivity, 308.15 K [S/m]	electrical conductivity, 313.15 K [S/m]	electrical conductivity, 318.15 K [S/m]	electrical conductivity, 323.15 K [S/m]	surface tension liquid-gas, 298.15 K [mN/m]
m1 = 1e-05	–	–	–	–	–	–	61.8 ± 9.3
m1 = 2e-05	–	–	–	–	–	–	56.01 ± 11
m1 = 3e-05	–	–	–	–	–	–	52.48 ± 6.4
m1 = 4e-05	–	–	–	–	–	–	50.87 ± 4.5
m1 = 5e-05	–	–	–	–	–	–	49.03 ± 3.3
m1 = 6e-05	–	–	–	–	–	–	47.1 ± 3.9
m1 = 7e-05	–	–	–	–	–	–	45.98 ± 2.8
m1 = 8e-05	–	–	–	–	–	–	43.05 ± 2.5
m1 = 0.0001	–	–	–	–	–	–	42.1 ± 0.87
m1 = 0.000111	0.00247 ± 0.00034	0.00278 ± 0.00043	0.00326 ± 0.00044	0.00342 ± 0.00038	0.00369 ± 0.0006	0.00384 ± 0.00062	–
m1 = 0.000115	0.00256 ± 0.00032	–	–	–	–	–	–
m1 = 0.000118	–	0.00293 ± 0.00042	0.00339 ± 0.00042	0.00353 ± 0.00043	0.00387 ± 0.00057	0.004 ± 0.00066	–
m1 = 0.00012	0.00265 ± 0.00031	–	–	–	–	–	41.5 ± 0.87
m1 = 0.000125	0.00273 ± 0.00031	0.00311 ± 0.0004	0.00353 ± 0.00041	0.00364 ± 0.00048	0.00407 ± 0.0006	0.00426 ± 0.00063	–
m1 = 0.00013	0.0028 ± 0.00032	–	–	–	–	–	–
m1 = 0.000133	–	0.00327 ± 0.00041	0.00369 ± 0.0004	0.00386 ± 0.00046	0.00431 ± 0.00057	0.00452 ± 0.00061	–
m1 = 0.000136	0.00289 ± 0.00033	–	–	–	–	–	–
m1 = 0.00014	–	–	–	–	–	–	40.55 ± 0.76
m1 = 0.000143	0.003 ± 0.00031	0.00347 ± 0.0004	0.00386 ± 0.0004	0.00411 ± 0.00048	0.00454 ± 0.00057	0.00482 ± 0.00063	–
m1 = 0.00015	0.00312 ± 0.00031	0.00361 ± 0.00038	0.004 ± 0.0004	0.00429 ± 0.00053	0.00478 ± 0.00058	0.00504 ± 0.00063	–
m1 = 0.000158	0.00326 ± 0.00029	0.00375 ± 0.00035	0.00418 ± 0.00039	0.00449 ± 0.00051	0.00503 ± 0.00055	0.00526 ± 0.00061	–
m1 = 0.000167	0.00338 ± 0.00029	0.00391 ± 0.00035	0.00438 ± 0.0004	0.00467 ± 0.00053	0.00529 ± 0.00057	0.00554 ± 0.00061	–
m1 = 0.00017	–	–	–	–	–	–	39.84 ± 0.61
m1 = 0.000176	0.00352 ± 0.00027	0.00407 ± 0.00032	0.00458 ± 0.0004	0.00494 ± 0.00049	0.00559 ± 0.00057	0.00586 ± 0.00061	–
m1 = 0.000188	0.00365 ± 0.00025	0.00424 ± 0.00029	0.00478 ± 0.00035	0.00523 ± 0.00047	0.00588 ± 0.00052	0.00618 ± 0.00058	–
m1 = 0.000197	–	0.00435 ± 0.00027	0.00493 ± 0.00034	0.00541 ± 0.00042	0.00613 ± 0.00051	0.00647 ± 0.00056	–
m1 = 0.0002	0.0038 ± 0.00022	–	–	–	–	–	39.13 ± 0.42
m1 = 0.000207	–	0.0045 ± 0.00027	0.00512 ± 0.00033	0.00562 ± 0.00041	0.00638 ± 0.00049	0.00676 ± 0.00055	–
m1 = 0.000214	0.00396 ± 0.00023	–	–	–	–	–	–
m1 = 0.000218	–	0.00464 ± 0.00026	0.00529 ± 0.00032	0.00582 ± 0.00036	0.00665 ± 0.00048	0.00702 ± 0.00053	–
m1 = 0.000231	0.00413 ± 0.00022	0.00479 ± 0.00024	0.00548 ± 0.00028	0.00602 ± 0.00034	0.00694 ± 0.00041	0.00736 ± 0.00049	–
m1 = 0.00024	0.00423 ± 0.00021	0.00491 ± 0.00023	0.0056 ± 0.00028	0.00617 ± 0.00031	0.00714 ± 0.00042	0.0076 ± 0.0005	–
m1 = 0.00025	0.00434 ± 0.00021	0.00502 ± 0.00023	0.00573 ± 0.00028	0.00633 ± 0.00031	0.00734 ± 0.0004	0.00784 ± 0.00048	–
m1 = 0.000261	0.00445 ± 0.0002	0.00513 ± 0.00021	0.00587 ± 0.00027	0.00647 ± 0.00028	0.00755 ± 0.00039	0.00808 ± 0.00042	–
m1 = 0.000273	0.00456 ± 0.00019	0.00524 ± 0.00022	0.00604 ± 0.00027	0.00663 ± 0.00029	0.00777 ± 0.00037	0.00832 ± 0.00039	–
m1 = 0.000286	0.00469 ± 0.0002	0.00539 ± 0.00025	0.00621 ± 0.00022	0.00681 ± 0.00043	0.008 ± 0.00021	0.00856 ± 0.00039	–
m1 = 0.0003	0.00481 ± 0.00019	0.00556 ± 0.00026	0.00639 ± 0.00022	0.00704 ± 0.00044	0.00822 ± 0.0002	0.0088 ± 0.00037	38.57 ± 0.38
m1 = 0.0004	–	–	–	–	–	–	38.4 ± 0.38

O [water] + CCCCCCCCCCCCCC[N+](C)(C)CCCCCC[N+](C)(C)CCCCCCCCCCCCCC.[Br-].[Br-]
Details	surface tension liquid-gas [mN/m]
298.15 K, m2 = 0	71.98 ± 16

CCCCCCCCCCCCCC[N+](C)(C)CCCC[N+](C)(C)CCCCCCCCCCCCCC.[Br-].[Br-] + O
Details	electrical conductivity, 298.15 K [S/m]	electrical conductivity, 303.15 K [S/m]	electrical conductivity, 308.15 K [S/m]	electrical conductivity, 313.15 K [S/m]	electrical conductivity, 318.15 K [S/m]	electrical conductivity, 323.15 K [S/m]	surface tension liquid-gas, 298.15 K [mN/m]
m1 = 1e-05	–	–	–	–	–	–	58.66 ± 6.8
m1 = 2e-05	–	–	–	–	–	–	56.16 ± 11
m1 = 3e-05	–	–	–	–	–	–	51.87 ± 4.7
m1 = 4e-05	–	–	–	–	–	–	50.69 ± 4.2
m1 = 5e-05	–	–	–	–	–	–	49.28 ± 3.2
m1 = 6e-05	–	–	–	–	–	–	47.86 ± 3.4
m1 = 7e-05	–	–	–	–	–	–	45.48 ± 3.1
m1 = 8e-05	–	–	–	–	–	–	44.02 ± 2.9
m1 = 9e-05	–	–	–	–	–	–	43.09 ± 2.4
m1 = 0.0001	–	–	–	–	–	–	42.13 ± 2.2
m1 = 0.000111	0.00256 ± 0.0004	–	0.00315 ± 0.00053	0.00337 ± 0.00058	–	0.00418 ± 0.00066	–
m1 = 0.000118	0.0027 ± 0.00041	0.00296 ± 0.00044	0.00332 ± 0.0005	0.00354 ± 0.00056	0.00387 ± 0.00057	0.00442 ± 0.00058	–
m1 = 0.00012	–	–	–	–	–	–	39.63 ± 1.6
m1 = 0.000125	0.00286 ± 0.00038	0.00313 ± 0.0004	0.00351 ± 0.00045	0.00375 ± 0.00057	0.00411 ± 0.00057	0.00465 ± 0.00059	–
m1 = 0.000133	0.003 ± 0.00038	0.00333 ± 0.00034	0.00371 ± 0.00046	0.00401 ± 0.00056	0.00436 ± 0.00046	0.0049 ± 0.00062	–
m1 = 0.00014	–	–	–	–	–	–	39.01 ± 0.48
m1 = 0.000143	0.00321 ± 0.00034	0.00354 ± 0.0004	0.00392 ± 0.00045	0.00426 ± 0.00056	0.00463 ± 0.00058	0.00514 ± 0.0006	–
m1 = 0.00015	0.00333 ± 0.00031	0.00365 ± 0.00037	0.00407 ± 0.00042	0.00448 ± 0.00054	0.00486 ± 0.00056	0.00538 ± 0.00061	–
m1 = 0.000158	0.00344 ± 0.00027	0.00377 ± 0.00032	0.00423 ± 0.00038	0.00468 ± 0.0005	0.005 ± 0.00053	0.00563 ± 0.0006	–
m1 = 0.000167	0.00354 ± 0.00023	0.00391 ± 0.00031	0.00442 ± 0.00038	0.00491 ± 0.00049	0.00524 ± 0.00055	0.00588 ± 0.00062	–
m1 = 0.00017	–	–	–	–	–	–	38.87 ± 0.45
m1 = 0.000176	0.00364 ± 0.00021	0.00405 ± 0.00027	0.00458 ± 0.00035	0.00514 ± 0.00047	0.00548 ± 0.00047	0.0062 ± 0.00062	–
m1 = 0.000188	0.00373 ± 0.00018	0.00418 ± 0.00023	0.00475 ± 0.00029	0.0054 ± 0.00037	0.00576 ± 0.00046	0.00653 ± 0.00062	–
m1 = 0.000197	0.00382 ± 0.00017	0.00427 ± 0.0002	0.00487 ± 0.00027	0.00557 ± 0.00036	0.00593 ± 0.0004	0.00682 ± 0.0006	–
m1 = 0.0002	–	–	–	–	–	–	38.31 ± 0.45
m1 = 0.000207	0.0039 ± 0.00017	0.00436 ± 0.0002	0.005 ± 0.00027	0.00574 ± 0.00034	0.00612 ± 0.00041	0.00712 ± 0.00056	–
m1 = 0.000218	0.00399 ± 0.00016	0.00447 ± 0.00018	0.00514 ± 0.00025	0.00588 ± 0.00029	0.00632 ± 0.00035	0.00745 ± 0.00049	–
m1 = 0.000231	0.00409 ± 0.00015	0.00457 ± 0.00019	0.00529 ± 0.00023	0.00606 ± 0.00024	0.00655 ± 0.00035	0.00772 ± 0.00042	–
m1 = 0.00024	0.00416 ± 0.00015	0.00465 ± 0.00017	0.00539 ± 0.00022	0.00617 ± 0.00025	0.00667 ± 0.0003	0.00786 ± 0.00037	–
m1 = 0.00025	0.00422 ± 0.00015	0.00473 ± 0.00017	0.00549 ± 0.00022	0.00628 ± 0.00024	0.0068 ± 0.0003	0.00805 ± 0.00035	–
m1 = 0.000261	0.0043 ± 0.00015	0.00482 ± 0.00015	0.0056 ± 0.0002	0.00641 ± 0.00023	0.00694 ± 0.00025	0.00823 ± 0.00032	–
m1 = 0.000273	0.00438 ± 0.00015	0.00489 ± 0.00016	0.00572 ± 0.0002	0.00652 ± 0.00022	0.00708 ± 0.00024	0.00839 ± 0.0003	–
m1 = 0.000286	0.00448 ± 0.00015	0.00499 ± 0.00023	0.00584 ± 0.0002	0.00667 ± 0.00015	0.00724 ± 0.00045	0.00858 ± 0.00029	–
m1 = 0.0003	0.00459 ± 0.00016	0.00512 ± 0.00025	0.00597 ± 0.00019	0.00681 ± 0.00017	0.0074 ± 0.00044	0.00877 ± 0.00029	37.21 ± 0.43

O [water] + CCCCCCCCCCCC[N+](C)(C)CCC[N+](C)(C)CCCCCCCCCCCC.[Br-].[Br-]
Details	surface tension liquid-gas [mN/m]
298.15 K, m2 = 0	71.98 ± 2.4

O [water] + CCCCCCCCCCCCCC[N+](C)(C)CCC[N+](C)(C)CCCCCCCCCCCCCC.[Br-].[Br-]
Details	surface tension liquid-gas [mN/m]
298.15 K, m2 = 0	71.98 ± 18

O [water] + CCCCCCCCCCCCCC[N+](C)(C)CCCC[N+](C)(C)CCCCCCCCCCCCCC.[Br-].[Br-]
Details	surface tension liquid-gas [mN/m]
298.15 K, m2 = 0	71.98 ± 16
